{"source": "patent EP0302824A2", "about": "(priority 1987, dated 1989)", "key": {"D. balteata": {"test_system": "D. balteata", "assay": "Soil activity of seed applied furathiocarb on maize cultivars Centaurus and Arjuna", "format": "in vivo, Diabrotica balteata", "parameters": "key to Scores of damage caused by D. balteata: 0-6 crown-root damage scale: 0 = no damage, 6 = <3 roots connect stem to soil", "excerpt": "Plastic pots, 1 litre volume, are filled with soil to within 3 cm of the top. Three soil types are used: • 1. A natural soil from Stein, Canton Aargau, Switzerland. This is heat sterilized and sieved to give an agglomerate size of less than 5 mm. Its composition is clay 20.7%, silt 13.7%, sand 65.6%, organic matter 3.2%, pH 5.6. Moisture is adjusted to 20% of dry weight. • 2. An artificial mixture of fine quartz sand and milled neutralized peat (2% of total by dry weight). The moisture is adjusted to 10% of dry weight. • 3. An artificial mixture similar to (2) except that the neutralized peat comprised 6% by dry weight. Moisture is adjusted to 20% for the mixture.\nOne seed is sown 3 cm deep in the center of each of 10 pots per treatment. The pots are placed in a growth chamber with a relative humidity of 70% in a 12 hour daylength, light intensity 30,000 lux, using 26°C day and 22°C night temperatures. Soil moisture is maintained at the original level by daily irrigation with a commercially available nutrient solution.\nAfter two or three weeks of plant growth, 40 larvae of the banded cucumber beetle (Diabrotica balteata) are scattered on the surface of each pot. This insect species is commonly used as a laboratory model for the corn rootworm (Diabrotica spp.) which is a common soil insect pest of maize (Zea mays) in the USA. For this test, second instar larvae are selected. They are reared on maize seedlings at 23°C for 13 days from egglaying. The surface of the soil in the pots is disturbed and 40 larvae are scattered on the surface. The disturbance encourages burrowing of the larvae.\nThe insects are allowed to feed on the plant roots for one week before the contents of each pot are separated into three components (roots, insects and soil) using a wet sieving technique. Living larvae are then counted and damage assessed on crown roots growing from the stem-base using the 0-6 scale shown below: • 0 = no damage • 1 = slight feeding damage, no roots eaten through • 2 = more than 3 places with feed damage, no roots eaten through • 3 = 1-2 roots eaten through • 4 = more than 2, but less than half the roots eaten • 5 = more than half the roots eaten, but at least 3 still connect stem and soil • 6 = less than 3 roots connect stem to soil\nThis example includes the results of test series using 2 maize cultivars Centaurus and Arjuna. The basic test procedure is described in detail under example 20 therefore only differences are mentioned here.\nSeeds of the hybrid Centaurus are treated with 4 or 10 g/kg furathiocarb in either PVAc/PVAl or association polymer systems. The cultivar Arjuna is treated with 2.5 or 10 g/kg seed in the same polymer systems. The seeds are sown in two soil types, either a natural soil from Stein, Canton Aargau, Switzerland or in a 98% sand 2% peat mixture. Both these soil types are described previously."}, "corn rootworms": {"test_system": "corn rootworms", "assay": "Field control of corn rootworms by insecticide/polymer combinations applied to the seed", "format": "in vivo, Diabrotica spp.", "conditions": "maize G 4733, 0-6 scale, 63 days after planting"}, "[1]": {"conditions": "cultivar Arjuna, 98% Sand, 3 w, Association Polymer, dosage 2.5 g"}, "[2]": {"conditions": "cultivar Arjuna, 98% Sand, 3 w, Association Polymer, dosage 10 g"}, "[3]": {"conditions": "cultivar Arjuna, 98% Sand, 3 w, PVAc/PVAl, dosage 2.5 g"}, "[4]": {"conditions": "cultivar Arjuna, 98% Sand, 3 w, PVAc/PVAl, dosage 10 g"}, "[5]": {"conditions": "cultivar Arjuna, 98% Sand, 4 w, Association Polymer, dosage 2.5 g"}, "[6]": {"conditions": "cultivar Arjuna, 98% Sand, 4 w, Association Polymer, dosage 10 g"}, "[7]": {"conditions": "cultivar Arjuna, 98% Sand, 4 w, PVAc/PVAl, dosage 2.5 g"}, "[8]": {"conditions": "cultivar Arjuna, 98% Sand, 4 w, PVAc/PVAl, dosage 10 g"}, "[9]": {"conditions": "cultivar Arjuna, Stein Earth, 3 w, Association Polymer, dosage 2.5 g"}, "[10]": {"conditions": "cultivar Arjuna, Stein Earth, 3 w, Association Polymer, dosage 10 g"}, "[11]": {"conditions": "cultivar Arjuna, Stein Earth, 3 w, PVAc/PVAl, dosage 2.5 g"}, "[12]": {"conditions": "cultivar Arjuna, Stein Earth, 3 w, PVAc/PVAl, dosage 10 g"}, "[13]": {"conditions": "cultivar Arjuna, Stein Earth, 4 w, Association Polymer, dosage 2.5 g"}, "[14]": {"conditions": "cultivar Arjuna, Stein Earth, 4 w, Association Polymer, dosage 10 g"}, "[15]": {"conditions": "cultivar Arjuna, Stein Earth, 4 w, PVAc/PVAl, dosage 2.5 g"}, "[16]": {"conditions": "cultivar Arjuna, Stein Earth, 4 w, PVAc/PVAl, dosage 10 g"}, "[17]": {"conditions": "hybrid Centaurus, 98% Sand, 3 w, Association Polymer, dosage 4 g"}, "[18]": {"conditions": "hybrid Centaurus, 98% Sand, 3 w, Association Polymer, dosage 10 g"}, "[19]": {"conditions": "hybrid Centaurus, 98% Sand, 3 w, PVAc/PVAl, dosage 4 g"}, "[20]": {"conditions": "hybrid Centaurus, 98% Sand, 3 w, PVAc/PVAl, dosage 10 g"}, "[21]": {"conditions": "hybrid Centaurus, 98% Sand, 4 w, Association Polymer, dosage 4 g"}, "[22]": {"conditions": "hybrid Centaurus, 98% Sand, 4 w, Association Polymer, dosage 10 g"}, "[23]": {"conditions": "hybrid Centaurus, 98% Sand, 4 w, PVAc/PVAl, dosage 4 g"}, "[24]": {"conditions": "hybrid Centaurus, 98% Sand, 4 w, PVAc/PVAl, dosage 10 g"}, "[25]": {"conditions": "hybrid Centaurus, Stein Earth, 3 w, Association Polymer, dosage 4 g"}, "[26]": {"conditions": "hybrid Centaurus, Stein Earth, 3 w, Association Polymer, dosage 10 g"}, "[27]": {"conditions": "hybrid Centaurus, Stein Earth, 3 w, PVAc/PVAl, dosage 4 g"}, "[28]": {"conditions": "hybrid Centaurus, Stein Earth, 3 w, PVAc/PVAl, dosage 10 g"}, "[29]": {"conditions": "hybrid Centaurus, Stein Earth, 4 w, Association Polymer, dosage 4 g"}, "[30]": {"conditions": "hybrid Centaurus, Stein Earth, 4 w, Association Polymer, dosage 10 g"}, "[31]": {"conditions": "hybrid Centaurus, Stein Earth, 4 w, PVAc/PVAl, dosage 4 g"}, "[32]": {"conditions": "hybrid Centaurus, Stein Earth, 4 w, PVAc/PVAl, dosage 10 g"}}, "data": [{"smiles": "CCCCOC(=O)N(C)SN(C)C(=O)Oc1cccc2c1OC(C)(C)C2", "note": "[furathiocarb]", "values": [{"measurement": "Percent D. balteata survival", "setting": "D. balteata; [1]", "value": 5, "unit": "%"}, {"measurement": "Scores of damage caused by D. balteata", "setting": "D. balteata; [1]", "value": 1.4}, {"measurement": "Percent D. balteata survival", "setting": "D. balteata; [2]", "value": 8, "unit": "%"}, {"measurement": "Scores of damage caused by D. balteata", "setting": "D. balteata; [2]", "value": 1.2}, {"measurement": "Percent D. balteata survival", "setting": "D. balteata; [3]", "value": 20, "unit": "%"}, {"measurement": "Scores of damage caused by D. balteata", "setting": "D. balteata; [3]", "value": 3.0}, {"measurement": "Percent D. balteata survival", "setting": "D. balteata; [4]", "value": 20, "unit": "%"}, {"measurement": "Scores of damage caused by D. balteata", "setting": "D. balteata; [4]", "value": 2.8}, {"measurement": "Percent D. balteata survival", "setting": "D. balteata; [5]", "value": 17, "unit": "%"}, {"measurement": "Scores of damage caused by D. balteata", "setting": "D. balteata; [5]", "value": 2.8}, {"measurement": "Percent D. balteata survival", "setting": "D. balteata; [6]", "value": 0, "unit": "%"}, {"measurement": "Scores of damage caused by D. balteata", "setting": "D. balteata; [6]", "value": 0.6}, {"measurement": "Percent D. balteata survival", "setting": "D. balteata; [7]", "value": 39, "unit": "%"}, {"measurement": "Scores of damage caused by D. balteata", "setting": "D. balteata; [7]", "value": 3.4}, {"measurement": "Percent D. balteata survival", "setting": "D. balteata; [8]", "value": 21, "unit": "%"}, {"measurement": "Scores of damage caused by D. balteata", "setting": "D. balteata; [8]", "value": 3.2}, {"measurement": "Percent D. balteata survival", "setting": "D. balteata; [9]", "value": 1, "unit": "%"}, {"measurement": "Scores of damage caused by D. balteata", "setting": "D. balteata; [9]", "value": 3.6}, {"measurement": "Percent D. balteata survival", "setting": "D. balteata; [10]", "value": 1, "unit": "%"}, {"measurement": "Scores of damage caused by D. balteata", "setting": "D. balteata; [10]", "value": 1.8}, {"measurement": "Percent D. balteata survival", "setting": "D. balteata; [11]", "value": 5, "unit": "%"}, {"measurement": "Scores of damage caused by D. balteata", "setting": "D. balteata; [11]", "value": 3.2}, {"measurement": "Percent D. balteata survival", "setting": "D. balteata; [12]", "value": 3, "unit": "%"}, {"measurement": "Scores of damage caused by D. balteata", "setting": "D. balteata; [12]", "value": 3.0}, {"measurement": "Percent D. balteata survival", "setting": "D. balteata; [13]", "value": 17, "unit": "%"}, {"measurement": "Scores of damage caused by D. balteata", "setting": "D. balteata; [13]", "value": 3.8}, {"measurement": "Percent D. balteata survival", "setting": "D. balteata; [14]", "value": 0, "unit": "%"}, {"measurement": "Scores of damage caused by D. balteata", "setting": "D. balteata; [14]", "value": 2.3}, {"measurement": "Percent D. balteata survival", "setting": "D. balteata; [15]", "value": 11, "unit": "%"}, {"measurement": "Scores of damage caused by D. balteata", "setting": "D. balteata; [15]", "value": 3.0}, {"measurement": "Percent D. balteata survival", "setting": "D. balteata; [16]", "value": 14, "unit": "%"}, {"measurement": "Scores of damage caused by D. balteata", "setting": "D. balteata; [16]", "value": 3.4}, {"measurement": "Percent D. balteata survival", "setting": "D. balteata; [17]", "value": 2, "unit": "%"}, {"measurement": "Scores of damage caused by D. balteata", "setting": "D. balteata; [17]", "value": 1.4}, {"measurement": "Percent D. balteata survival", "setting": "D. balteata; [18]", "value": 4, "unit": "%"}, {"measurement": "Scores of damage caused by D. balteata", "setting": "D. balteata; [18]", "value": 0}, {"measurement": "Percent D. balteata survival", "setting": "D. balteata; [19]", "value": 17, "unit": "%"}, {"measurement": "Scores of damage caused by D. balteata", "setting": "D. balteata; [19]", "value": 3.0}, {"measurement": "Percent D. balteata survival", "setting": "D. balteata; [20]", "value": 8, "unit": "%"}, {"measurement": "Scores of damage caused by D. balteata", "setting": "D. balteata; [20]", "value": 1.8}, {"measurement": "Percent D. balteata survival", "setting": "D. balteata; [21]", "value": 8, "unit": "%"}, {"measurement": "Scores of damage caused by D. balteata", "setting": "D. balteata; [21]", "value": 1.6}, {"measurement": "Percent D. balteata survival", "setting": "D. balteata; [22]", "value": 8, "unit": "%"}, {"measurement": "Scores of damage caused by D. balteata", "setting": "D. balteata; [22]", "value": 1.2}, {"measurement": "Percent D. balteata survival", "setting": "D. balteata; [23]", "value": 36, "unit": "%"}, {"measurement": "Scores of damage caused by D. balteata", "setting": "D. balteata; [23]", "value": 3.4}, {"measurement": "Percent D. balteata survival", "setting": "D. balteata; [24]", "value": 30, "unit": "%"}, {"measurement": "Scores of damage caused by D. balteata", "setting": "D. balteata; [24]", "value": 3.6}, {"measurement": "Percent D. balteata survival", "setting": "D. balteata; [25]", "value": 0, "unit": "%"}, {"measurement": "Scores of damage caused by D. balteata", "setting": "D. balteata; [25]", "value": 0.8}, {"measurement": "Percent D. balteata survival", "setting": "D. balteata; [26]", "value": 1, "unit": "%"}, {"measurement": "Scores of damage caused by D. balteata", "setting": "D. balteata; [26]", "value": 1.0}, {"measurement": "Percent D. balteata survival", "setting": "D. balteata; [27]", "value": 1, "unit": "%"}, {"measurement": "Scores of damage caused by D. balteata", "setting": "D. balteata; [27]", "value": 2.1}, {"measurement": "Percent D. balteata survival", "setting": "D. balteata; [28]", "value": 1, "unit": "%"}, {"measurement": "Scores of damage caused by D. balteata", "setting": "D. balteata; [28]", "value": 1.0}, {"measurement": "Percent D. balteata survival", "setting": "D. balteata; [29]", "value": 4, "unit": "%"}, {"measurement": "Scores of damage caused by D. balteata", "setting": "D. balteata; [29]", "value": 2.1}, {"measurement": "Percent D. balteata survival", "setting": "D. balteata; [30]", "value": 7, "unit": "%"}, {"measurement": "Scores of damage caused by D. balteata", "setting": "D. balteata; [30]", "value": 1.9}, {"measurement": "Percent D. balteata survival", "setting": "D. balteata; [31]", "value": 4, "unit": "%"}, {"measurement": "Scores of damage caused by D. balteata", "setting": "D. balteata; [31]", "value": 1.8}, {"measurement": "Percent D. balteata survival", "setting": "D. balteata; [32]", "value": 10, "unit": "%"}, {"measurement": "Scores of damage caused by D. balteata", "setting": "D. balteata; [32]", "value": 2.2}, {"measurement": "Ratings for corn rootworm damage", "setting": "corn rootworms; Granule, 0.1 g m⁻¹", "value": 3.2}, {"measurement": "Ratings for corn rootworm damage", "setting": "corn rootworms; seed treatment Association Polymer, 10 g/kg", "value": 4.5}, {"measurement": "Ratings for corn rootworm damage", "setting": "corn rootworms; seed treatment PVAc/PVAl, 10 g/kg", "value": 4.1}, {"measurement": "Ratings for corn rootworm damage", "setting": "corn rootworms; seed treatment PVAc/PVAl, 30 g/kg", "value": 4.8}]}]}
